The target of experiment [1] is T1, NEP (Homo sapiens (Human), UniProt P08473). The note with it: change of carboxylic acid chain length versus succinic acid compound 21a; cited from earlier work.
Experiment [2] deals with T1, NEP. As to the kind of experiment: Assay 1: in vitro enzyme inhibition assay at human NEP (fluorogenic peptide substrate). It counts as biochemical. The note with it: for pKi: comparative examples, exact values.
Protocol: The assays were performed in 384-well white opaque plates at 37° C. using the fluorogenic peptide substrates at a concentration of 10 μM in Assay Buffer (NEP: 50 mM HEPES, pH 7.5, 100 mM NaCl, 0.01% polyethylene glycol sorbitan monolaurate (Tween-20), 10 μM ZnSO4; ACE: 50 mM HEPES, pH 7.5, 100 mM NaCl, 0.01% Tween-20, 1 μM ZnSO4).
Test compounds were assayed over the range of concentrations from 10 μM to 20 pM. Test compounds were added to the enzymes and incubated for 30 minute at 37° C. prior to initiating the reaction by the addition of substrate. Reactions were terminated after 20 minutes of incubation at 37° C. by the addition of glacial acetic acid to a final concentration of 3.6% (v/v).
Inhibition constants were obtained by nonlinear regression of the data using the equation (GraphPad Software, Inc., San Diego, Calif.): v=v0/[1+(I/K′)] where v is the reaction rate, v0 is the uninhibited reaction rate, I is the inhibitor concentration and K′ is the apparent inhibition constant.

Regarding `C[C@H](CC(Cc1ccc(-c2ccccc2)cc1)NC(=O)CC(=O)O)C(=O)O` (stereo partly drawn) [Example 21g], the “decrease in activity relative to 21a” value in experiment [1] is 18 fold.

For `O=C(N[C@H](Cc1ccc(-c2cccc(Cl)c2)cc1)C[C@@H](O)C(=O)O)C(=O)OCCC(F)(F)F` [Example 2N, (2R,4R)-5-(3′-Chlorobiphenyl-4-yl)-2-hydroxy-4-[(3,3,3-trifluoropropoxyoxalyl)-amino]pentanoic Acid], the Ki in experiment [2] (reported as ranges) was ≤ 1 nM.

For the compound `C[C@H](C[C@@H](Cc1ccc(-c2ccccc2)cc1)NC(=O)CCCC(=O)O)C(=O)O` [Example 21e], the “decrease in activity relative to 21a” value in experiment [1] is on record as 18 fold. As for `C[C@H](C[C@@H](Cc1ccc(-c2ccccc2)cc1)NC(=O)CCCCC(=O)O)C(=O)O` [Example 21f], the “decrease in activity relative to 21a” value in experiment [1] is reported as 65 fold. On to `O=C(O)CCCC(=O)N[C@H](Cc1ccc(-c2ccccc2)cc1)C[C@@H](CO)C(=O)O` [Comparative Compound H, (2S,4S)-5-Biphenyl-4-yl-4-(4-carboxy-butyrylamino)-2-hydroxmethylpentanoic Acid], for which the negative-log Ki (pKi) in experiment [2] is 8.6.

`O=C(O)CCCC(=O)N[C@H](Cc1ccc(-c2ccccc2)cc1)CC(O)C(=O)O` (stereo partly drawn) [Comparative Compound E, (R)-5-Biphenyl-4-yl-4-(4-carboxybutrylamino)-2-hydroxypentanoic Acid] gave a pKi in experiment [2] of 7.3.

What is called Ki is a measure of affinity in units of concentration, obtained from inhibition or displacement. A low value points to tighter binding. One may read the pKi as the Ki on a negative log10 scale, so that one unit is a factor of ten. Low values mean a large Ki, high ones a small Ki.

(Values after US10744104B2, “Neprilysin inhibitors” (THERAVANCE BIOPHARMA R&D IP, LLC, priority 2011, dated 2020).)
